Patent US20170050957A1, “4-AMINO-6-(HETEROCYCLIC)PICOLINATES AND 6-AMINO-2-(HETEROCYCLIC)PYRIMIDINE-4-CARBOXYLATES AND THEIR USE AS HERBICIDES” (Dow AgroSciences LLC, priority 2013, published 2017)
Read-outs that look alike come from different tables or passages of the source.

Experiments:
[1] = system: Key Broadleaf Weed and Crop Species; assay: Post-emergent Test II herbicidal activity (Table 15); format: in vivo; details: post-emergence, 336 h, 14 d; for pest or weed control at 35 g/ha: 35 g ai/ha; for pest or weed control at 70 g/ha: 70 g ai/ha; for pest or weed control at 140 g/ha: 140 g ai/ha; for pest or weed control at 280 g/ha: 280 g ai/ha
How it was run: (§1)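 Visual injury rating (0 = none, 100% = complete kill) made 14 d after treatment, relative to untreated plants. Compounds in an acetone/DMSO/aqueous crop-oil/surfactant spray, at top rate and serial 1/2×-1/16× rates, were applied at 187 L/ha overhead to first-second true leaf plants raised 7-21 d in greenhouse.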

[2] = system: Key Grass and Sedge Weeds as well as Grass Crops; assay: Post-emergent Test II herbicidal activity (Table 16); format: in vivo; details: post-emergence, 336 h, 14 days after application; for pest or weed control at 35 g/ha: 35 g ai/ha; for pest or weed control at 70 g/ha: 70 g ai/ha; for pest or weed control at 140 g/ha: 140 g ai/ha; for pest or weed control at 280 g/ha: 280 g ai/ha
How it was run: as §1

[3] = Abutilon theophrasti, velvetleaf (Abutilon theophrasti), read-out: Visual Growth Reduction (%) 14 Days After Application, ABUTH
[4] = Amaranthus retroflexus, redroot pigweed (Amaranthus retroflexus), read-out: Visual Growth Reduction (%) 14 Days After Application, AMARE
[5] = Brassica napus, oilseed rape, canola (Brassica napus), read-out: Visual Growth Reduction (%) 14 Days After Application, BRSNN
[6] = Chenopodium album, lambsquarters (Chenopodium album), read-out: Visual Growth Reduction (%) 14 Days After Application, CHEAL
[7] = Euphorbia heterophylla, wild poinsettia (Euphorbia heterophylla), read-out: Visual Growth Reduction (%) 14 Days After Application, EPHHL
[8] = Helianthus annuus, sunflower (Helianthus annuus), read-out: Visual Growth Reduction (%) 14 Days After Application, HELAN
[9] = Cyperus esculentus, yellow nutsedge (Cyperus esculentus), read-out: Visual Growth Reduction (%) 14 Days After Application CYPES
[10] = Echinochloa crus-galli, barnyardgrass (Echinochloa crus-galli), read-out: Visual Growth Reduction (%) 14 Days After Application ECHCG
[11] = Oryza sativa, rice (Oryza sativa), read-out: Visual Growth Reduction (%) 14 Days After Application ORYSA
[12] = Setaria faberi, giant foxtail (Setaria faberi), read-out: Visual Growth Reduction (%) 14 Days After Application SETFA
[13] = Triticum aestivum, wheat, spring (Triticum aestivum), read-out: Visual Growth Reduction (%) 14 Days After Application TRZAS
[14] = Zea mays, maize, corn (Zea mays), read-out: Visual Growth Reduction (%) 14 Days After Application ZEAMX

How did the pest or weed control at 35 g/ha [1, 3] turn out when `COC(=O)c1nc(-c2cccc3ccsc23)cc(N)c1Cl` [Compound 3.27] was run?
Its pest or weed control at 35 g/ha is 0 to 29%.

What about the pest or weed control at 70 g/ha [1, 3] of the same compound?
The pest or weed control at 70 g/ha was 0 to 29%.

And the pest or weed control at 140 g/ha [1, 3]?
The pest or weed control at 140 g/ha was 45 to 59%.

What about the pest or weed control at 280 g/ha [1, 3] of the same compound?
The pest or weed control at 280 g/ha was 75 to 84%.

What about the pest or weed control at 35 g/ha [1, 4] of the same compound?
Its pest or weed control at 35 g/ha is 85 to 94%.

And the pest or weed control at 70 g/ha [1, 4]?
The pest or weed control at 70 g/ha was 95 to 100%.

What about the pest or weed control at 140 g/ha [1, 4] of the same compound?
The pest or weed control at 140 g/ha was 95 to 100%.

What about the pest or weed control at 280 g/ha [1, 4] of the same compound?
Its pest or weed control at 280 g/ha is 95 to 100%.

And the pest or weed control at 35 g/ha [1, 5]?
Its pest or weed control at 35 g/ha is 45 to 59%.

What about the pest or weed control at 70 g/ha [1, 5] of the same compound?
Its pest or weed control at 70 g/ha is 60 to 74%.

And the pest or weed control at 140 g/ha [1, 5]?
Its pest or weed control at 140 g/ha is 60 to 74%.

And the pest or weed control at 280 g/ha [1, 5]?
The pest or weed control at 280 g/ha was 85 to 94%.

And the pest or weed control at 35 g/ha [1, 6]?
Its pest or weed control at 35 g/ha is 75 to 84%.

And the pest or weed control at 70 g/ha [1, 6]?
The pest or weed control at 70 g/ha was 85 to 94%.

And the pest or weed control at 140 g/ha [1, 6]?
Its pest or weed control at 140 g/ha is 95 to 100%.

And the pest or weed control at 280 g/ha [1, 6]?
Its pest or weed control at 280 g/ha is 95 to 100%.

And the pest or weed control at 35 g/ha [1, 7]?
The pest or weed control at 35 g/ha was 0 to 29%.

And the pest or weed control at 70 g/ha [1, 7]?
The pest or weed control at 70 g/ha was 0 to 29%.

What about the pest or weed control at 140 g/ha [1, 7] of the same compound?
The pest or weed control at 140 g/ha was 0 to 29%.

And the pest or weed control at 280 g/ha [1, 7]?
Its pest or weed control at 280 g/ha is 0 to 29%.

And the pest or weed control at 35 g/ha [1, 8]?
Its pest or weed control at 35 g/ha is 45 to 59%.

What about the pest or weed control at 70 g/ha [1, 8] of the same compound?
The pest or weed control at 70 g/ha was 60 to 74%.

And the pest or weed control at 140 g/ha [1, 8]?
The pest or weed control at 140 g/ha was 75 to 84%.

What about the pest or weed control at 280 g/ha [1, 8] of the same compound?
The pest or weed control at 280 g/ha was 85 to 94%.

And the pest or weed control at 35 g/ha [2, 9]?
Its pest or weed control at 35 g/ha is 0 to 29%.

And the pest or weed control at 70 g/ha [2, 9]?
The pest or weed control at 70 g/ha was 0 to 29%.

What about the pest or weed control at 140 g/ha [2, 9] of the same compound?
Its pest or weed control at 140 g/ha is 0 to 29%.

And the pest or weed control at 280 g/ha [2, 9]?
The pest or weed control at 280 g/ha was 0 to 29%.

And the pest or weed control at 35 g/ha [2, 10]?
The pest or weed control at 35 g/ha was 0 to 29%.

And the pest or weed control at 70 g/ha [2, 10]?
The pest or weed control at 70 g/ha was 0 to 29%.

And the pest or weed control at 140 g/ha [2, 10]?
The pest or weed control at 140 g/ha was 0 to 29%.

And the pest or weed control at 280 g/ha [2, 10]?
The pest or weed control at 280 g/ha was 0 to 29%.

What about the pest or weed control at 35 g/ha [2, 11] of the same compound?
The pest or weed control at 35 g/ha was 0 to 29%.

What about the pest or weed control at 70 g/ha [2, 11] of the same compound?
The pest or weed control at 70 g/ha was 0 to 29%.

And the pest or weed control at 140 g/ha [2, 11]?
Its pest or weed control at 140 g/ha is 0 to 29%.

And the pest or weed control at 280 g/ha [2, 11]?
Its pest or weed control at 280 g/ha is 0 to 29%.

And the pest or weed control at 35 g/ha [2, 12]?
Its pest or weed control at 35 g/ha is 0 to 29%.

What about the pest or weed control at 70 g/ha [2, 12] of the same compound?
The pest or weed control at 70 g/ha was 0 to 29%.

What about the pest or weed control at 140 g/ha [2, 12] of the same compound?
The pest or weed control at 140 g/ha was 0 to 29%.

What about the pest or weed control at 280 g/ha [2, 12] of the same compound?
Its pest or weed control at 280 g/ha is 0 to 29%.

And the pest or weed control at 35 g/ha [2, 13]?
The pest or weed control at 35 g/ha was 0 to 29%.

What about the pest or weed control at 70 g/ha [2, 13] of the same compound?
Its pest or weed control at 70 g/ha is 0 to 29%.

And the pest or weed control at 140 g/ha [2, 13]?
Its pest or weed control at 140 g/ha is 0 to 29%.

What about the pest or weed control at 280 g/ha [2, 13] of the same compound?
The pest or weed control at 280 g/ha was 0 to 29%.

And the pest or weed control at 35 g/ha [2, 14]?
The pest or weed control at 35 g/ha was 0 to 29%.

What about the pest or weed control at 70 g/ha [2, 14] of the same compound?
Its pest or weed control at 70 g/ha is 0 to 29%.

What about the pest or weed control at 140 g/ha [2, 14] of the same compound?
Its pest or weed control at 140 g/ha is 0 to 29%.

And the pest or weed control at 280 g/ha [2, 14]?
The pest or weed control at 280 g/ha was 0 to 29%.
